Among the data in PubChem BioAssay AID330 (DTP/NCI, 2004) are T/C values, retold here.

This experiment relates to P388 leukemia ip, CD2F1 mice, survival T/C. The experiment can be described thus: NCI In Vivo Anticancer Drug Screen. Data for tumor model P388 Leukemia (intraperitoneal) in CD2F1 (CDF1) mice. As to conditions: endpoint: median survival time, higher = longer survival. An outline of the steps:
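Mice carrying the transplanted tumor received test compound or vehicle. Survival was recorded in each group, and the value is the treated-group measurement divided by that of the vehicle-treated control group.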

[1] abbreviates: dose: 60.0 mg/kg/injection, schedule: Q01DX005 (ip), vehicle: saline.
[2] abbreviates: dose: 120.0 mg/kg/injection, schedule: Q01DX005 (ip), vehicle: saline.
Where [3] appears, read: dose: 60.0 mg/kg/injection, schedule: Q01DX005 (ip), vehicle: saline with Tween-80.
[4] abbreviates: dose: 120.0 mg/kg/injection, schedule: Q01DX005 (ip), vehicle: saline with Tween-80.
[5] abbreviates: dose: 240.0 mg/kg/injection, schedule: Q01DX005 (ip), vehicle: saline with Tween-80.
The mark [6] stands for this setting: dose: 50.0 mg/kg/injection, schedule: Q01DX009 (ip), vehicle: saline with Tween-80.
The mark [7] stands for this setting: dose: 50.0 mg/kg/injection, schedule: Q01DX005 (ip), vehicle: saline with Tween-80.
[8] abbreviates: dose: 100.0 mg/kg/injection, schedule: Q01DX005 (ip), vehicle: saline with Tween-80.
The mark [9] stands for this setting: dose: 200.0 mg/kg/injection, schedule: Q01DX005 (ip), vehicle: saline with Tween-80.

The structures appear in SMILES notation. Values joined by “and” are separate entries in the source; they are usually repeats but may differ in a detail not shown here. Identical values can stand only once. Toxic doses and inconclusive results are not listed.

`NC(=O)c1csc(C2OC(CO)C(O)C2O)n1` (stereo not drawn): the T/C runs as follows: (dose: 75.0 mg/kg/injection, schedule: Q01DX005 (ip), vehicle: saline) 158 % of control; (dose: 100.0 mg/kg/injection, schedule: Q01DX005 (ip), vehicle: saline) 155 % of control and 159 % of control and 161 % of control; (dose: 100.0 mg/kg/injection, schedule: Q01DX005 (ip), vehicle: water) 157 % of control; (dose: 150.0 mg/kg/injection, schedule: Q01DX005 (ip), vehicle: saline) 152 % of control and 158 % of control; (dose: 200.0 mg/kg/injection, schedule: Q01DX005 (ip), vehicle: saline) 173 % of control and 174 % of control and 178 % of control; (dose: 200.0 mg/kg/injection, schedule: Q01DX005 (ip), vehicle: water) 171 % of control. In addition, the T/C reads like this: (dose: 300.0 mg/kg/injection, schedule: Q01DX005 (ip), vehicle: saline) 163 % of control and 177 % of control; (dose: 300.0 mg/kg/injection, schedule: Q01DX005 (ip), vehicle: water) 158 % of control; (dose: 300.0 mg/kg/injection, schedule: Q01DX009 (ip), vehicle: water) 193 % of control and 198 % of control; (dose: 400.0 mg/kg/injection, schedule: Q01DX005 (ip), vehicle: saline) 181 % of control and 187 % of control and 198 % of control; (dose: 400.0 mg/kg/injection, schedule: Q01DX005 (ip), vehicle: water) 164 % of control and 189 % of control; (dose: 400.0 mg/kg/injection, schedule: Q01DX009 (ip), vehicle: water) 201 % of control and 224 % of control. The T/C reads like this: (dose: 600.0 mg/kg/injection, schedule: Q01DX005 (ip), vehicle: saline) 177 % of control; (dose: 600.0 mg/kg/injection, schedule: Q01DX005 (ip), vehicle: water) 169 % of control; (dose: 600.0 mg/kg/injection, schedule: Q01DX009 (ip), vehicle: water) 234 % of control and 237 % of control; (dose: 700.0 mg/kg/injection, schedule: Q01DX009 (ip), vehicle: water) 245 % of control and 86 % of control; (dose: 750.0 mg/kg/injection, schedule: Q01DX009 (ip), vehicle: water) 117 % of control; (dose: 800.0 mg/kg/injection, schedule: Q01DX005 (ip), vehicle: saline) 217 % of control. Further, where the note is “dose: 800.0 mg/kg/injection, schedule: Q01DX009 (ip), vehicle: water”, the T/C is 99 % of control and 245 % of control.

Regarding `CSc1nc(C)c(C(=O)CCN2CCOCC2)s1`, the T/C is 117 % of control under setting [1] and 105 % of control under setting [2].

On to `CCN(CC)CCNc1ccc(C)c2sc3cccc(O)c3c(=O)c12`, for which the T/C (dose: 100.0 mg/kg/injection, schedule: Q01DX009 (ip), vehicle: Klucel (hydroxypropylcellulose) (HPC)) is 181 % of control.

`COc1ccc2ccc3cccnc3c2n1`: the T/C under setting [3] is 93 % of control, the T/C under setting [4] is 99 % of control and the T/C under setting [5] is 105 % of control.

For the compound `N#Cc1c(-c2ccccc2)nc2sccn12`, the T/C was 88 % of control (dose: 100.0 mg/kg/injection, schedule: Q01DX001 (ip), vehicle: Klucel (hydroxypropylcellulose) (HPC)) and 91 % of control (dose: 400.0 mg/kg/injection, schedule: Q01DX001 (ip), vehicle: Klucel (hydroxypropylcellulose) (HPC)).

In the case of `CCCCC[CH2][Sn]([CH2]C)([CH2]C)[O]C(C)=O`, the T/C reads like this: (dose: 0.5 mg/kg/injection, schedule: Q01DX009 (ip), vehicle: saline with Tween-80) 109 % of control; (dose: 1.0 mg/kg/injection, schedule: Q01DX009 (ip), vehicle: saline with Tween-80) 113 % of control; (dose: 2.0 mg/kg/injection, schedule: Q01DX009 (ip), vehicle: saline with Tween-80) 109 % of control.

For `CC1(C=O)CCCC2(C)[C@@H]1CCC13CC(CO)C(CC[C@H]12)C3` (stereo partly drawn), the T/C reads like this: (dose: 1.63 mg/kg/injection, schedule: Q01DX005 (ip), vehicle: Klucel (hydroxypropylcellulose) (HPC)) 86 % of control; (dose: 3.25 mg/kg/injection, schedule: Q01DX005 (ip), vehicle: Klucel (hydroxypropylcellulose) (HPC)) 88 % of control.

On to `CCOC(=O)C(=O)C1Cc2ccc3ccc(OC)cc3c2C1=O` (stereo not drawn), for which the T/C was 109 % of control (dose: 12.5 mg/kg/injection, schedule: Q01DX009 (ip), vehicle: distilled water + Tween-80); 112 % of control (dose: 25.0 mg/kg/injection, schedule: Q01DX009 (ip), vehicle: distilled water + Tween-80); 102 % of control (dose: 50.0 mg/kg/injection, schedule: Q01DX009 (ip), vehicle: distilled water + Tween-80); 94 % of control (dose: 100.0 mg/kg/injection, schedule: Q01DX009 (ip), vehicle: distilled water + Tween-80); 102 % of control (dose: 200.0 mg/kg/injection, schedule: Q01DX009 (ip), vehicle: distilled water + Tween-80).

As for `CC(C)(O)C1C2OC(=O)C1C1(O)CC3OC34C(=O)OC2C14C` (stereo not drawn), the T/C (dose: 12.5 mg/kg/injection, schedule: Q01DX009 (ip), vehicle: saline with Tween-80) is 100 % of control; the T/C (dose: 25.0 mg/kg/injection, schedule: Q01DX009 (ip), vehicle: saline with Tween-80) was 100 % of control; the T/C (dose: 33.0 mg/kg/injection, schedule: Q04DX003 (ip), vehicle: saline with Tween-80) is 104 % of control; the T/C under setting [6] was 100 % of control; the T/C (dose: 50.0 mg/kg/injection, schedule: Q04DX003 (ip), vehicle: saline with Tween-80) is 109 % of control.

As for `O=C(c1ccc(Br)cc1)c1cnc2nc(-c3ccccc3)c(-c3ccccc3)nn12`, the T/C runs as follows: under setting [7], 91 % of control; under setting [8], 96 % of control; under setting [9], 96 % of control.

As for `COC(=O)C1=CO[C@@H](C)[C@@H]2CN3CCc4c([nH]c5ccc(OC)cc45)[C@@H]3C[C@H]12`, the T/C runs as follows: under setting [7], 106 % of control; under setting [8], 101 % of control; under setting [9], 105 % of control.

With `O=C(Nc1ccccc1)/C(N=Nc1ccc([N+](=O)[O-])cc1Cl)=N/Nc1ccc([N+](=O)[O-])cc1Cl`, the T/C is 111 % of control (dose: 50.0 mg/kg/injection, schedule: Q01DX005 (ip), vehicle: Klucel (hydroxypropylcellulose) (HPC)) and 109 % of control (dose: 100.0 mg/kg/injection, schedule: Q01DX005 (ip), vehicle: Klucel (hydroxypropylcellulose) (HPC)).

For the compound `COc1nc(N2CCNCC2)nc2c1CCCC2`, the T/C is, setting by setting: under setting [1], 93 % of control; under setting [2], 103 % of control.

Consider `CNC(=S)C(N)CCCC1NC(=S)N(C)C1=O` (stereo not drawn), for which the T/C is, setting by setting: under setting [3], 99 % of control; under setting [4], 89 % of control; under setting [5], 88 % of control.

For `CN(C)S(=O)(=O)Nc1ccccn1`, the T/C under setting [6] is 106 % of control; the T/C (dose: 100.0 mg/kg/injection, schedule: Q01DX009 (ip), vehicle: saline with Tween-80) was 92 % of control; the T/C (dose: 200.0 mg/kg/injection, schedule: Q01DX009 (ip), vehicle: saline with Tween-80) was 86 % of control.
